Consider one substance from US11273169B2, “Food for improving intestinal environment” (AJINOMOTO CO., INC., priority 2017, dated 2022).

The test system of this assay is lactic acid bacteria group (mainly, Lactobacillus spp.). In words: Addition test of γ-PGA and fructo-oligosaccharide to human feces suspension. Type of assay: cell-based. The conditions noted are these: human feces suspension in PBS medium, anaerobic culture 37° C. 4 days, quantitative PCR, 0.1-1.0% γ-PGA, 0.5% FOS, n=6. How it is done:
The PBS solutions of Examples and Comparative Examples shown in Table 1 were prepared and used as media for feces culture. PBS alone was used as a negative control. As γ-PGA, polyglutamic acid “CALTAKE” manufactured by Ajinomoto Co., Inc. was used, and as FOS, fructo-oligosaccharide manufactured by Wako Pure Chemical Industries, Ltd. was used.
Thereafter, 10 ml each was dispensed into glass vials and the glass vials were sterilized by autoclave, made anaerobic, and sealed with a butyl rubber stopper. The feces suspension was prepared by collecting about 10 g of feces from 6 healthy individuals (3 men and 3 women) in their 20s to 40s and suspending same in 80 ml of anaerobic PBS. […] DNA was extracted from this pellet using ISOFECAL for BeadsBeat (manufactured by NIPPON GENE CO., LTD.), and quantitative PCR was performed using GeneAce SYBR qPCR Mix α (manufactured by NIPPON GENE CO., LTD.). Quantitative PCR was performed under the conditions of 45 cycles of 95° C. for 30 sec and 60° C. for 60 sec after 95° C. for 10 min. Primers for quantitative PCR used for detection of lactic acid bacteria group (mainly, Lactobacillus spp.) were as follows.
Using the results obtained by quantitative PCR, the relative amount when PBS alone (negative control) is 1 was calculated, and the results were normalized with z-score. […]

For γ-polyglutamic acid [γ-PGA], the “proliferation of the lactic acid bacteria group” value is given as “not observed”.
